Test results from PMC3775947 (Clinical lymphoma, myeloma & leukemia, 2013).
Read-outs that look alike come from different tables or passages of the source.

Experiments:
[1] = Plasma pharmacokinetics of barasertib, barasertib-hQPA and LDAC; settings: for Css, barasertib: geometric mean (CV%)
[2] = tested on: elderly patients with newly diagnosed AML; assay: Phase I dose escalation: dose-limiting toxicities and maximum tolerated dose; type: in vivo, human
patients with AML [3] = settings: cited from earlier work
[4] = tested on: elderly patients with newly diagnosed AML
[5] = tested on: elderly patients with newly diagnosed AML; assay: AML response assessed by investigators; type: in vivo, human
[6] = human, in vivo
patients with AML [7] = settings: cited from earlier work; remark: listed apart in the source
[8] = Total, barasertib 800-1200 mg + LDAC 400 mg, n=22
[9] = all patients, barasertib + LDAC, n=22
[10] = barasertib 800 mg + LDAC 400 mg, n=6
[11] = barasertib 1000 mg + LDAC 400 mg, n=13
[12] = barasertib 1200 mg + LDAC 400 mg, n=3
[13] = combination treatment barasertib + LDAC
[14] = overall, barasertib + LDAC, n=22

CCN(CCCOc1ccc2c(Nc3cc(CC(=O)Nc4cccc(F)c4)n[nH]3)ncnc2c1)CCOP(=O)(O)O [Barasertib]
Steady-state plasma concentrations observed from, after start of infusion ([1]; 7-day continuous iv infusion of barasertib, Day 1, maintained until EOI): 24 h | Time following EOI at which levels were generally undetectable ([1]; plasma, LLOQ 0.25 ng/mL): 2 h | Css, barasertib ([1]; plasma, barasertib 800 mg + LDAC 400 mg, n=6): 46.7 (55.8) ng/mL | Css, barasertib ([1]; plasma, barasertib 1000 mg + LDAC 400 mg, n=13): 44.4 (55.5) ng/mL | Css, barasertib ([1]; plasma, barasertib 1200 mg + LDAC 400 mg, n=3): 64.9 (67.4) ng/mL | Tolerability of dose level ([2]; barasertib 1200 mg + LDAC): non-tolerated | DLTs reported ([2]; in vivo): No DLTs | Incidence of febrile neutropenia (patients with AML [3]; barasertib monotherapy Phase I study): 47% | Lowest dose associated with clinical activity (patients with AML [3]; barasertib): 400 mg | Grade ≥3 febrile neutropenia, patients ([4]; MTD of barasertib 1000 mg + LDAC): 69% | Alopecia, AE (any cause; all grades) [4, 8]: 6 (27) n (%) | Anemia, grade ≥3 adverse event [4, 8]: 2 (9) n (%) | Any AE (any cause; all grades) [4, 8]: 22 (100) n (%) | Any grade ≥3 AE [4, 8]: 21 (96) n (%) | Confusional state, AE (any cause; all grades) [4, 8]: 5 (23) n (%) | Constipation, AE (any cause; all grades) [4, 8]: 6 (27) n (%) | Cough, AE (any cause; all grades) [4, 8]: 4 (18) n (%) | Decreased appetite, AE (any cause; all grades) [4, 8]: 4 (18) n (%) | Diarrhea, AE (any cause; all grades) [4, 8]: 10 (46) n (%) | Diarrhea, grade ≥3 adverse event [4, 8]: 2 (9) n (%) | Febrile neutropenia, AE (any cause; all grades) [4, 8]: 13 (59) n (%) | Febrile neutropenia, grade ≥3 adverse event [4, 8]: 13 (59) n (%) | Headache, AE (any cause; all grades) [4, 8]: 5 (23) n (%) | Hemorrhoids, AE (any cause; all grades) [4, 8]: 4 (18) n (%) | Hypertension, AE (any cause; all grades) [4, 8]: 4 (18) n (%) | Insomnia, AE (any cause; all grades) [4, 8]: 4 (18) n (%) | Musculoskeletal pain, AE (any cause; all grades) [4, 8]: 4 (18) n (%) | Nausea, AE (any cause; all grades) [4, 8]: 11 (50) n (%) | Neutropenia, AE (any cause; all grades) [4, 8]: 4 (18) n (%) | Neutropenia, grade ≥3 adverse event [4, 8]: 4 (18) n (%) | Oropharyngeal pain, AE (any cause; all grades) [4, 8]: 5 (23) n (%) | Peripheral edema, AE (any cause; all grades) [4, 8]: 9 (41) n (%) | Petechiae, AE (any cause; all grades) [4, 8]: 6 (27) n (%) | Pneumonia, AE (any cause; all grades) [4, 8]: 6 (27) n (%) | Pneumonia, grade ≥3 adverse event [4, 8]: 3 (14) n (%) | Pyrexia, AE (any cause; all grades) [4, 8]: 5 (23) n (%) | Rash, AE (any cause; all grades) [4, 8]: 4 (18) n (%) | Stomatitis, AE (any cause; all grades) [4, 8]: 9 (41) n (%) | Peripheral edema, patients [4, 9]: 41% | Stomatitis, patients [4, 9]: 41% | Alopecia, AE (any cause; all grades) [4, 10]: 2 n | Anemia, grade ≥3 adverse event [4, 10]: 2 n | Any AE (any cause; all grades) [4, 10]: 6 n | Any grade ≥3 AE [4, 10]: 6 n | Confusional state, AE (any cause; all grades) [4, 10]: 2 n | Constipation, AE (any cause; all grades) [4, 10]: 3 n | Cough, AE (any cause; all grades) [4, 10]: 1 n | Decreased appetite, AE (any cause; all grades) [4, 10]: 2 n | Diarrhea, AE (any cause; all grades) [4, 10]: 5 n | Diarrhea, grade ≥3 adverse event [4, 10]: 1 n | Febrile neutropenia, AE (any cause; all grades) [4, 10]: 4 n | Febrile neutropenia, grade ≥3 adverse event [4, 10]: 4 n | Headache, AE (any cause; all grades) [4, 10]: 3 n | Hemorrhoids, AE (any cause; all grades) [4, 10]: 1 n | Hypertension, AE (any cause; all grades) [4, 10]: 0 n | Insomnia, AE (any cause; all grades) [4, 10]: 0 n | Musculoskeletal pain, AE (any cause; all grades) [4, 10]: 2 n | Nausea, AE (any cause; all grades) [4, 10]: 4 n | Neutropenia, AE (any cause; all grades) [4, 10]: 1 n | Neutropenia, grade ≥3 adverse event [4, 10]: 1 n | Oropharyngeal pain, AE (any cause; all grades) [4, 10]: 1 n | Peripheral edema, AE (any cause; all grades) [4, 10]: 2 n | Petechiae, AE (any cause; all grades) [4, 10]: 3 n | Pneumonia, AE (any cause; all grades) [4, 10]: 3 n | Pneumonia, grade ≥3 adverse event [4, 10]: 0 n | Pyrexia, AE (any cause; all grades) [4, 10]: 3 n | Rash, AE (any cause; all grades) [4, 10]: 2 n | Stomatitis, AE (any cause; all grades) [4, 10]: 3 n | Stomatitis, grade ≥3 adverse event [4, 10]: 0 n | Thrombocytopenia, grade ≥3 adverse event (grade 4) [4, 10]: 1 n | Vomiting, AE (any cause; all grades) [4, 10]: 3 n | Alopecia, AE (any cause; all grades) [4, 11]: 4 n | Anemia, grade ≥3 adverse event [4, 11]: 0 n | Any AE (any cause; all grades) [4, 11]: 13 n | Any grade ≥3 AE [4, 11]: 12 n | Confusional state, AE (any cause; all grades) [4, 11]: 3 n | Constipation, AE (any cause; all grades) [4, 11]: 3 n | Cough, AE (any cause; all grades) [4, 11]: 3 n | Decreased appetite, AE (any cause; all grades) [4, 11]: 1 n | Diarrhea, AE (any cause; all grades) [4, 11]: 5 n | Diarrhea, grade ≥3 adverse event [4, 11]: 1 n | Febrile neutropenia, AE (any cause; all grades) [4, 11]: 9 n | Febrile neutropenia, grade ≥3 adverse event [4, 11]: 9 n | Headache, AE (any cause; all grades) [4, 11]: 2 n | Hemorrhoids, AE (any cause; all grades) [4, 11]: 3 n | Hypertension, AE (any cause; all grades) [4, 11]: 3 n | Insomnia, AE (any cause; all grades) [4, 11]: 3 n | Musculoskeletal pain, AE (any cause; all grades) [4, 11]: 2 n | Nausea, AE (any cause; all grades) [4, 11]: 6 n | Neutropenia, AE (any cause; all grades) [4, 11]: 2 n | Neutropenia, grade ≥3 adverse event [4, 11]: 2 n | Oropharyngeal pain, AE (any cause; all grades) [4, 11]: 4 n | Peripheral edema, AE (any cause; all grades) [4, 11]: 7 n | Petechiae, AE (any cause; all grades) [4, 11]: 2 n | Pneumonia, AE (any cause; all grades) [4, 11]: 3 n | Pneumonia, grade ≥3 adverse event [4, 11]: 3 n | Pyrexia, AE (any cause; all grades) [4, 11]: 2 n | Rash, AE (any cause; all grades) [4, 11]: 2 n | Stomatitis, AE (any cause; all grades) [4, 11]: 4 n | Stomatitis, grade ≥3 adverse event [4, 11]: 2 n | Thrombocytopenia, grade ≥3 adverse event (grade 4) [4, 11]: 1 n | Vomiting, AE (any cause; all grades) [4, 11]: 2 n | Alopecia, AE (any cause; all grades) [4, 12]: 0 n | Anemia, grade ≥3 adverse event [4, 12]: 0 n | Any AE (any cause; all grades) [4, 12]: 3 n | Any grade ≥3 AE [4, 12]: 3 n | Confusional state, AE (any cause; all grades) [4, 12]: 0 n | Constipation, AE (any cause; all grades) [4, 12]: 0 n | Cough, AE (any cause; all grades) [4, 12]: 0 n | Decreased appetite, AE (any cause; all grades) [4, 12]: 1 n | Diarrhea, AE (any cause; all grades) [4, 12]: 0 n | Diarrhea, grade ≥3 adverse event [4, 12]: 0 n | Febrile neutropenia, AE (any cause; all grades) [4, 12]: 0 n | Febrile neutropenia, grade ≥3 adverse event [4, 12]: 0 n | Headache, AE (any cause; all grades) [4, 12]: 0 n | Hemorrhoids, AE (any cause; all grades) [4, 12]: 0 n | Hypertension, AE (any cause; all grades) [4, 12]: 1 n | Insomnia, AE (any cause; all grades) [4, 12]: 1 n | Musculoskeletal pain, AE (any cause; all grades) [4, 12]: 0 n | Nausea, AE (any cause; all grades) [4, 12]: 1 n | Neutropenia, AE (any cause; all grades) [4, 12]: 1 n | Neutropenia, grade ≥3 adverse event [4, 12]: 1 n | Oropharyngeal pain, AE (any cause; all grades) [4, 12]: 0 n | Peripheral edema, AE (any cause; all grades) [4, 12]: 0 n | Petechiae, AE (any cause; all grades) [4, 12]: 1 n | Pneumonia, AE (any cause; all grades) [4, 12]: 0 n | Pneumonia, grade ≥3 adverse event [4, 12]: 0 n | Pyrexia, AE (any cause; all grades) [4, 12]: 0 n | Rash, AE (any cause; all grades) [4, 12]: 0 n | Stomatitis, AE (any cause; all grades) [4, 12]: 2 n | Stomatitis, grade ≥3 adverse event [4, 12]: 2 n | Thrombocytopenia, grade ≥3 adverse event (grade 4) [4, 12]: 0 n | Vomiting, AE (any cause; all grades) [4, 12]: 1 n | ECG assessment [4, 13]: no clinically significant changes | Vital signs, hematology, or clinical chemistry parameters [4, 13]: no clinically relevant adverse changes | Dose interruptions due to AEs [4, 14]: Three | Grade ≥3 febrile neutropenia, patients [4, 14]: 59% | SAE febrile neutropenia [4, 14]: 36% | SAE stomatitis [4, 14]: 9% | SAEs considered related to study treatment [4, 14]: Five | Serious AEs (SAEs), patients [4, 14]: 68% | Overall response rate (International Working Group criteria; by investigator opinion) ([5]; all patients, barasertib + LDAC, n=10/22): 45% | Complete response with incomplete recovery of neutrophils and/or platelets, patients [5, 9]: 9% | Partial response, patients [5, 9]: 9% | Best clinical response: CR (complete response) [5, 10]: 2 n | Best clinical response: CRi (complete response with incomplete recovery of neutrophils and/or platelets) [5, 10]: 0 n | Best clinical response: ORR (overall response rate) [5, 10]: 3 (50) n (%) | Best clinical response: PR (partial response) [5, 10]: 1 n | Best clinical response: CR (complete response) [5, 11]: 3 n | Best clinical response: CRi (complete response with incomplete recovery of neutrophils and/or platelets) [5, 11]: 2 n | Best clinical response: ORR (overall response rate) [5, 11]: 6 (46) n (%) | Best clinical response: PR (partial response) [5, 11]: 1 n | Response rate ([5]; barasertib 1000 mg cohort + LDAC, 6/13 patients): 46% | Best clinical response: CR (complete response) [5, 12]: 1 n | Best clinical response: CRi (complete response with incomplete recovery of neutrophils and/or platelets) [5, 12]: 0 n | Best clinical response: ORR (overall response rate) [5, 12]: 1 (33) n (%) | Best clinical response: PR (partial response) [5, 12]: 0 n | Complete response, patients with adverse cytogenetic risk ([5]; barasertib + LDAC, n=7): 14% | Complete responses (CR or CRi), patients with intermediate risk cytogenetics ([5]; barasertib + LDAC, n=9): 44%

Nc1ccn([C@@H]2O[C@H](CO)[C@@H](O)[C@@H]2O)c(=O)n1 [LDAC, cytosine arabinoside]
AUC0–8 ratio, Day 7:Day10, LDAC ([6]; 800 mg): 1.1 (14.6) ng.h/mL | AUC0–8 ratio, Day 7:Day10, LDAC ([6]; 1000 mg): 1.2 (24.2) ng.h/mL | AUC0–8 ratio, Day 7:Day10, LDAC ([6]; 1200 mg): 0.79 (105.7) ng.h/mL | Time of peak plasma concentrations (Cmax) post administration ([6]; sc, 20 mg): 0.25 to 1 h | t½, monophasic elimination ([6]; sc, 20 mg): 1 to 2 h | Infection frequency (patients with AML [7]; LDAC monotherapy): 45% | Rates of response (patients with AML [7]; LDAC or decitabine alone): ~20%
